Test results from patent US11518759B1, “Protacs based on VHL ligand targeting coronavirus 3CL protease and preparation method and application thereof” (SHAANXI PANLONG PHARMACEUTICAL CO., LTD., priority 2022, dated 2022).
Like-named read-outs stand apart in the source and are kept apart here.

Tests used:
SARS-CoV-2 3CL^pro [1] = biological target: T1, SARS-CoV-2 3CL^pro (Severe acute respiratory syndrome coronavirus 2 (2019-nCoV) (SARS-CoV-2), UniProt P0DTD1); test: biochemical; details: FRET
SARS-CoV-2 3CL^pro [2] = biological target: T1, SARS-CoV-2 3CL^pro; type: cell-based; details: 24 h, Western Blot

Cc1ncsc1-c1ccc(CNC(=O)[C@@H]2C[C@@H](O)CN2C(=O)[C@@H](NC(=O)COCCOCCn2cc(Cn3c(=O)[nH]/c(=N\c4cc5cn(C)nc5cc4Cl)n(Cc4cc(F)c(F)cc4F)c3=O)nn2)C(C)(C)C)cc1 [Compound 8]
< 100 nM: IC50 (SARS-CoV-2 3CL^pro [1]; SARS-CoV-2 3CLpro 0.5 μM, substrate 20 μM, class symbols, read-out: IC50) | IC50 (SARS-CoV-2 3CL^pro [1]; bound stated, read-out: IC50 values on 3CL^pro) | DC50 (SARS-CoV-2 3CL^pro [2]; HEK293E cells transfected with 3CLpro plasmid, class symbols) | DC50 (SARS-CoV-2 3CL^pro [2]; read-out: DC50 values for 3CL^pro, HEK293E cells, bound stated)
